Data published in patent publication US9504671B2, “Pharmaceutical compositions of spiro-oxindole compound for topical administration and their use as therapeutic agents” (Xenon Pharmaceuticals Inc., priority 2010, dated 2016).
“And” between values parts separate entries of the source, which are not always exact repeats. Equal entries are not always repeated. Where two headings read alike, the source gives them in different places.

Columns and labels:
[1] = test system: animal models; assay: animal models, oral dosing (earlier studies); type: in vivo; settings: oral dose of 25 mg/Kg, previous studies
From the text: For example, the mildly painful stimuli from scratching are effective in abolishing the itch sensation. In contrast, analgesics such as opioids can generate severe pruritis. The antagonistic interaction between pain and itch can be exploited in pruritis therapy, and current research concentrates on the identification of common targets for future analgesic and antipruritis therapy. […] Accordingly, COMPOUND A, as an enantiomer or a pharmaceutically acceptable salt thereof, can also be useful for treating pruritis.
Following paw withdrawal baseline measurements, animals were randomly divided into 4 different test groups (N=8 animals/group), including a vehicle control group for oral dosage, a vehicle control group for topical dosage, and two treatment groups. For the oral dosage groups, animals were dosed by oral gavages after baseline measurement. […] For the topical dosage groups, 50 mg of the test composition was applied on the ipsilateral ankle and foot. […] Von Frey withdrawal thresholds were measured as the mean of several independent determinations made within 1-2 minutes of each other on the affected paw of each animal. Withdrawal measurements were taken 60 minutes post dosing for the oral dosage group and 30 minutes post-dosing for the topical dosage group, representing their respective peak efficacy time points as determined in previous studies.

[2] = test system: CCI neuropathic pain model; assay: efficacy of topical versus oral administration, Chronic Constriction Injury, von Frey; type: in vivo, male Sprague Dawley rats; settings: p<0.001 vs vehicle
From the text: The Chronic Constriction Injury (CCI) model, an established neuropathic pain model in the rat, is used in this study to compare the levels of efficacy and systemic exposure of COMPOUND A between the topical and oral administration in male rats.
A peripheral neuropathy was induced in rats by placing loose constrictive ligatures around the common sciatic nerve as described by Bennett G J, and Xie Y-K., Pain, (1988) 33: pp. 87-107. Eight-week old male Sprague Dawley rats were anaesthetized with 3.5% isoflurane, and a 3 cm incision was made through the skin and fascia at the mid-thigh level of the animal's left hind leg using a no. 10 scalpel blade. […]
A painful neuropathy was allowed to develop in the ipsilateral leg as determined by lower paw withdrawal thresholds to a mechanical stimulus. Only those with significant hyperalgesia as determined by reduced threshold, measured in grams, to paw withdrawal to the von Frey filament were enrolled in the study.
The paw withdrawal thresholds of animals from mechanical tactile stimuli were measured using the Model 2290 Electrovonfrey anesthesiometer (IITC Life Science, Woodland Hills, Calif.). […] After 15 minutes of accommodation in this enclosure, a von Frey hair was applied perpendicularly to the plantar surface of the ipsilateral hind paws of the animals, with sufficient force, measured in grams, to elicit a crisp response of the paw. […]

[3] = solubility studies of COMPOUND A (UV spectrophotometry at 312 nm); type: physicochemical
From the text: The spiro-oxindole compound of the invention, particularly, COMPOUND A, is relatively lipophilic and has poor water solubility.
Attempts to improve the solubility of COMPOUND A for use in a topical pharmaceutical composition, preferably as an ointment, were undertaken using a variety of solubilization techniques. The aim was to conduct a thorough investigation of the use of various pharmaceutically acceptable excipients to maximize the solubility of COMPOUND A. A series of solubility studies, which were performed using standard solubility testing techniques, was therefore carried out to identify proper excipient(s) and/or excipient combinations for achieving the target dosage strength for COMPOUND A. The solubility of COMPOUND A in these studies was determined by UV spectrophotometry using COMPOUND A's UV absorbance wavelength at 312 nm.

[4] = systemic plasma concentration after topical or oral dosing in CCI rats (HPLC/MS/MS); type: in vivo, male Sprague Dawley rats; settings: 8% (w/w) topical vs 25 mg/Kg oral, blood 10-15 minutes after efficacy time points, p<0.0001
Description: Blood samples were taken from the same animals immediately after withdrawal threshold measurements using the following procedure at approximately 10-15 minutes after their respective efficacy time points. The rats were bled by jugular vein puncture while under anaesthesia. The time at which each blood sample was drawn, relative to the time of dosing, was recorded. Each blood sample (˜150 μL) was collected into a heparin-coated, labelled microvette tube containing 10 μL of heparin (100 Units) and placed on ice immediately. The blood samples were centrifuged at 4° C. to separate the plasma. The plasma was transferred to labelled tubes and snap-frozen in liquid nitrogen for storage at −80° C. At the time of analysis, the plasma was thawed and extracted using solid phase extraction, and the plasma drug concentration was quantified by HPLC/MS/MS.

## O=C1N(Cc2ccc(C(F)(F)F)o2)c2ccccc2[C@]12COc1cc3c(cc12)OCO3 [COMPOUND A, (S)-1′-{[5-(trifluoromethyl)furan-2-yl]methyl}spiro[furo[2,3-f][1,3]benzodioxole-7,3′-indol]-2′(1′H)-one]
[1]
  reversal of pain response: approximately half-maximal reversal of pain response
[2]; 25 mg/Kg oral gavage, 60 minutes post-dosing
  paw withdrawal threshold, percent mean change from baseline (CFB): 44.3% and 44%
[2]; 8% (w/w) topical, 50 mg on ipsilateral ankle and foot, 30 minutes post-dosing
  paw withdrawal threshold, percent mean change from baseline (CFB): 47.1% and 47%
[3]; aqueous solution with pH adjusted to 2, aqueous buffer, pH 2, 7.4 and 12, read-out: solubility on varying the pH of a solution
  solubility: < 5 µg/mL
[3]; water, read-out: water solubility
  solubility: < 5 µg/mL
[4]
  plasma level in topical dosage group lower than in oral dosage group (fold): ~20 ×
